Values joined by “and” are separate entries in the source; they are usually repeats but may differ in a detail not shown here. Equal entries are not always repeated. Where two headings read alike, the source gives them in different places. Square brackets hold non-standard residues; d marks the D form. Peptide text beside a SMILES is read from it. Tle = CC(C)(C)[C@H](N)C(=O)O
Legend:
plasma DP IV = biological target: T1, plasma DP IV (Rattus norvegicus, UniProt P14740); experiment: Plasma DP IV activity after intravasal and oral administration in Wistar rats; type: in vivo; conditions: for inhibition at 100 mg/kg: rat, Wistar rats
T1 construct: The assay mixture consisted of 80 μl reagent and 20 μl plasma; from tissue; host or cells: plasma of Wistar rats
T1 sequence (P14740 37-767 limits assumed): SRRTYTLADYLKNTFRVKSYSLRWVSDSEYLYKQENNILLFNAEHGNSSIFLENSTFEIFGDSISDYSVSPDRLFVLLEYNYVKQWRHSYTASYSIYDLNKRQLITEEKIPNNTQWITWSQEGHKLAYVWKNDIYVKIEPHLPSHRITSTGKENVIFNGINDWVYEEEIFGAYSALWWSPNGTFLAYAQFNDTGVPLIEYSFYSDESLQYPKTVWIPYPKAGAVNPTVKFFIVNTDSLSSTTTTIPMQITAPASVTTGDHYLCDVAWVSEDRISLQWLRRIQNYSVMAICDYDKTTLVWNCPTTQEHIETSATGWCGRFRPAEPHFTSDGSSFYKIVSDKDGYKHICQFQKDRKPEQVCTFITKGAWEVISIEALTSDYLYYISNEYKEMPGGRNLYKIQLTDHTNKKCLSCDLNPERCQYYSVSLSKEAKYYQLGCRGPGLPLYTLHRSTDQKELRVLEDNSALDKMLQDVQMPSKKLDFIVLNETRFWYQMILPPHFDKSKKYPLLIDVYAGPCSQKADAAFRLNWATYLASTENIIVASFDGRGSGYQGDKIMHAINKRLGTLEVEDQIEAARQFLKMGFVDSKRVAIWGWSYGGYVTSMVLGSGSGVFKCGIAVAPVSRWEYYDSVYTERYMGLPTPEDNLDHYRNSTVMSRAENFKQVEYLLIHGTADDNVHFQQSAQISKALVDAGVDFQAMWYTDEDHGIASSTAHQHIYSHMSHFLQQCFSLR
Method: Rats with intact catheter function were given the test substances intravasal (intraarterial) or oral, respectively, in random order (N=3 Wistar rats in each group). As positive control, […]. isoleucine thiazolidine*fumarate were administered intravasal.
After overnight fasting, 100 μl samples of heparinized arterial blood were collected at −30, −5, and 0 min into ice-cooled Eppendorf tubes (see below). The test substances were dissolved freshly in 1.0 ml saline (0.154 mol/l) and were given at 0 min either oral via a feeding tube ([…], 75 mm; Fine Science Tools, Heidelberg, Germany) or intravasal. For the intravasal route, the catheter was immediately flushed with 30 μl saline and an additional 1 ml of saline was given orally via the feeding tube.
Arterial blood samples were taken thereafter at 5, 10 (only in a limited number of experiments), 20, 40, 60 and 120 min from the carotid catheter of the conscious unrestrained rats and were always given into ice cooled Eppendorf tubes (Eppendorf-Netheler-Hinz, Hamburg, Germany) filled with 10 μl 1 M citrate buffer pH 3.0 for prevention of further hydrolysis of tripeptides by plasma DP IV activity. Eppendorf tubes were centrifuged immediately (12000 rpm for 2 min, Hettich Zentrifuge EBA 12, Tuttlingen; Germany): The plasma fractions were store on ice until analysis or were deeply frozen at −20 ° C. until analysis.
Plasma DP IV activity: The assay mixture consisted of 80 μl reagent and 20 μl plasma. Kinetic measurements of the formation of the yellow product 4-nitroaniline were performed at 390 nm for 1 min at 30° C. after 2 min pre-incubation at the same temperature. The activity was expressed as arbitrary units [AU] and DP IV activity [mU/ml].
The absolute values of plasma DP IV activity, the relative change of plasma DP IV activity and the time and extent of maximal inhibition were calculated. Data presentation included the presentation of area under the curve (AUC), which was used for evaluation of extent of inhibition of plasma DP IV activity during the two hours of observation. AUC was calculated using the trapezoidal rule.
To compare relative changes of parameters under the conditions of different initial values of DP IV activity an uniform standardised mean (values) was set up at the beginning of the test (see Figures and Tables).
Statistical evaluations were performed with Microsoft Excel® 97. All variables are presented as mean and standard deviation (SD). Treatment groups were compared by Student's t-test, within-group changes by paired t-test. Two-tailed values of p<0.05 were considered significant.

[1] = system: diabetic Zucker rats (fa/fa); experiment: Oral glucose tolerance test (OGTT) in diabetic Zucker rats; type: in vivo; conditions: 100 mg/kg b.w. p.o.
Method: N=30 male Zucker rats (fa/fa), mean age 11 weeks (5-12 weeks), mean body weight 350 g (150-400 g), were purchased from Charles River (Sulzfeld, Germany). They were kept for >12 weeks until all the fatty Zucker rats had the characteristics of manifest Diabetes mellitus.
After overnight fasting, the fatty Zucker rats were given placebo, positive control and test substance, respectively, via feeding tube orally (15 G, 75 mm; Fine Science Tools, Heidelberg, Germany) at −10 min. An oral glucose tolerance test (OGTT) with 2 g/kg b.w. glucose as a 40% solution (B. Braun Melsungen, Melsungen, Germany) was implemented at ±0 min. The glucose was administered via a second feeding tube. Arterial blood samples from the carotid catheter were collected at −30 min, −15 min, ±0 min and at 5, 10, 15, 20, 30, 40, 60, 90 and 120 min into 20 μl glass capillaries, which were placed in standard tubes filled with 1 ml solution for hemolysis (blood glucose measurement).
Blood glucose: Glucose levels were measured using the glucose oxidase procedure (Super G Glukosemeβgerät; Dr. Müller Gerätebau, Freital, Germany).

[2] = oral 100 mg/kg b.w., individual animals, 100 mg/kg

CC[C@H](C)[C@H](NC(=O)[C@@H]1CCCN1C(=O)[C@@H](N)C(C)(C)C)C(=O)O [t-butyl-Gly-Pro-Ile] (H-[Tle]-Pro-Ile-OH; N-terminus and C-terminus assumed)
Plasma DP IV activity (plasma DP IV; oral 100 mg/kg b.w., 2.5 min, Mean): 17.25 mU/ml | Plasma DP IV activity (plasma DP IV; oral 100 mg/kg b.w., 2.5 min, Standardized Mean): 17.08 mU/ml | Plasma DP IV activity (plasma DP IV; oral 100 mg/kg b.w., 2.5 min, individual animals, 100 mg/kg): 20.61 mU/ml and 9.21 mU/ml and 21.93 mU/ml | Plasma DP IV activity (plasma DP IV; oral 100 mg/kg b.w., 5 min, Mean): 19.15 mU/ml | Plasma DP IV activity (plasma DP IV; oral 100 mg/kg b.w., 5 min, Standardized Mean): 18.98 mU/ml | Plasma DP IV activity (plasma DP IV; oral 100 mg/kg b.w., 5 min, individual animals, 100 mg/kg): 23.68 mU/ml and 13.16 mU/ml and 20.61 mU/ml | Plasma DP IV activity (plasma DP IV; oral 100 mg/kg b.w., 7.5 min, Mean): 17.25 mU/ml | Plasma DP IV activity (plasma DP IV; oral 100 mg/kg b.w., 7.5 min, Standardized Mean): 17.08 mU/ml | Plasma DP IV activity (plasma DP IV; oral 100 mg/kg b.w., 7.5 min, individual animals, 100 mg/kg): 21.05 mU/ml and 12.28 mU/ml and 18.42 mU/ml | Plasma DP IV activity (plasma DP IV; oral 100 mg/kg b.w., 10 min, Mean): 21.64 mU/ml | Plasma DP IV activity (plasma DP IV; oral 100 mg/kg b.w., 10 min, Standardized Mean): 21.46 mU/ml | Plasma DP IV activity (plasma DP IV; oral 100 mg/kg b.w., 10 min, individual animals, 100 mg/kg): 21.93 mU/ml and 25.88 mU/ml and 17.11 mU/ml | Plasma DP IV activity (plasma DP IV; oral 100 mg/kg b.w., 15 min, Mean): 21.05 mU/ml | Plasma DP IV activity (plasma DP IV; oral 100 mg/kg b.w., 15 min, Standardized Mean): 20.88 mU/ml | Plasma DP IV activity (plasma DP IV; oral 100 mg/kg b.w., 15 min, individual animals, 100 mg/kg): 29.39 mU/ml and 15.79 mU/ml and 17.98 mU/ml | Plasma DP IV activity (plasma DP IV; oral 100 mg/kg b.w., 20 min, Mean): 17.98 mU/ml | Plasma DP IV activity (plasma DP IV; oral 100 mg/kg b.w., 20 min, Standardized Mean): 17.81 mU/ml | Plasma DP IV activity (plasma DP IV; oral 100 mg/kg b.w., 20 min, individual animals, 100 mg/kg): 25.00 mU/ml and 10.97 mU/ml | Plasma DP IV activity (plasma DP IV; oral 100 mg/kg b.w., 40 min, Mean): 19.30 mU/ml | Plasma DP IV activity (plasma DP IV; oral 100 mg/kg b.w., 40 min, Standardized Mean): 19.12 mU/ml | Plasma DP IV activity (plasma DP IV; oral 100 mg/kg b.w., 40 min, individual animals, 100 mg/kg): 21.49 mU/ml and 8.77 mU/ml and 27.63 mU/ml | Plasma DP IV activity (plasma DP IV; oral 100 mg/kg b.w., 60 min, Mean): 19.44 mU/ml | Plasma DP IV activity (plasma DP IV; oral 100 mg/kg b.w., 60 min, Standardized Mean): 19.27 mU/ml | Plasma DP IV activity (plasma DP IV; oral 100 mg/kg b.w., 60 min, individual animals, 100 mg/kg): 21.93 mU/ml (2×) and 14.47 mU/ml | Plasma DP IV activity (plasma DP IV; oral 100 mg/kg b.w., 120 min, Mean): 20.91 mU/ml | Plasma DP IV activity (plasma DP IV; oral 100 mg/kg b.w., 120 min, Standardized Mean): 20.73 mU/ml | Plasma DP IV activity (plasma DP IV; oral 100 mg/kg b.w., 120 min, individual animals, 100 mg/kg): 16.23 mU/ml and 23.25 mU/ml (2×) | DP IV-AUC (plasma DP IV; oral 100 mg/kg b.w., Mean): −51.5 AU · min | Drop of plasma DP IV activity (plasma DP IV; oral 100 mg/kg b.w., Mean): 10.53 mU/ml | DP IV-AUC (plasma DP IV; [2]): 155.2 AU · min and −961.1 AU · min and 651.3 AU · min | Drop of plasma DP IV activity (plasma DP IV; [2]): 6.58 mU/ml and 23.25 mU/ml and 1.75 mU/ml | DP IV-AUC0-120 min (plasma DP IV; oral 100 mg/kg b.w., p<0.05 vs. intra-vasal): −336±162 mU·min·ml^−1 | inhibition at 100 mg/kg (plasma DP IV; iv, i.v., 100 mg/kg, read-out: DPIV inhibition at tmax, i.v.): 71% | inhibition at 100 mg/kg (plasma DP IV; po, p.o., 100 mg/kg, read-out: DPIV inhibition at tmax, p.o.): 28% | Improvement of glucose tolerance ([1]; AUC test compound vs AUC Control): 14.8% | AUC test compound (glucose, OGTT) ([1]; OGTT 2 g/kg glucose): 653.2 mmol·min/L
